PubChem BioAssay AID248 (DTP/NCI, 2004)
Several values for one entry are separate records, joined by “and”; a condition that tells them apart may be missing. Equal values may be shown once. Toxic doses and inconclusive results are not listed. Cut-off read from the data, not from the text of the source: active = T/C of 150% or more; inactive = T/C below 125%.

Tested on: L1210 leukemia ip in BDF1 mice, survival T/C
Assay: NCI In Vivo Anticancer Drug Screen. Data for tumor model L1210 Leukemia (intraperitoneal) in B6D2F1 (BDF1) mice
Conditions: endpoint: mean survival time, higher = longer survival
How it was run: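 Survival endpoint. Drug-treated group vs vehicle group, expressed as T divided by C. Tumor passaged by transplantation.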

[1] = dose: 75.0 mg/kg/injection, schedule: Q01DX001 (ip), vehicle: saline
[2] = dose: 100.0 mg/kg/injection, schedule: Q01DX001 (ip), vehicle: carboxymethylcellulose (CMC)
[3] = dose: 200.0 mg/kg/injection, schedule: Q01DX001 (ip), vehicle: carboxymethylcellulose (CMC)
[4] = dose: 400.0 mg/kg/injection, schedule: Q01DX001 (ip), vehicle: carboxymethylcellulose (CMC)
[5] = dose: 100.0 mg/kg/injection, schedule: Q01DX009 (ip), vehicle: Klucel (hydroxypropylcellulose) (HPC)
[6] = dose: 100.0 mg/kg/injection, schedule: Q04DX003 (ip), vehicle: Klucel (hydroxypropylcellulose) (HPC)
[7] = dose: 200.0 mg/kg/injection, schedule: Q01DX009 (ip), vehicle: Klucel (hydroxypropylcellulose) (HPC)
[8] = dose: 200.0 mg/kg/injection, schedule: Q04DX003 (ip), vehicle: Klucel (hydroxypropylcellulose) (HPC)
[9] = dose: 400.0 mg/kg/injection, schedule: Q01DX009 (ip), vehicle: Klucel (hydroxypropylcellulose) (HPC)
[10] = dose: 400.0 mg/kg/injection, schedule: Q04DX003 (ip), vehicle: Klucel (hydroxypropylcellulose) (HPC)
[11] = dose: 50.0 mg/kg/injection, schedule: Q01DX001 (ip), vehicle: saline
[12] = dose: 100.0 mg/kg/injection, schedule: Q01DX001 (ip), vehicle: saline
[13] = dose: 200.0 mg/kg/injection, schedule: Q01DX001 (ip), vehicle: saline
[14] = dose: 100.0 mg/kg/injection, schedule: Q04DX003 (ip), vehicle: saline with Tween-80
[15] = dose: 200.0 mg/kg/injection, schedule: Q04DX003 (ip), vehicle: saline with Tween-80
[16] = dose: 400.0 mg/kg/injection, schedule: Q04DX003 (ip), vehicle: saline with Tween-80
[17] = dose: 50.0 mg/kg/injection, schedule: Q01DX009 (ip), vehicle: Klucel (hydroxypropylcellulose) (HPC)

Measured: T/C

CC(C)C(C(=O)c1ccccc1)C(Cl)c1ccccc1 (stereo not given)
inactive: dose: 100.0 mg/kg/injection, schedule: Q04DX003 (ip), vehicle: other 94 % of control | dose: 200.0 mg/kg/injection, schedule: Q04DX003 (ip), vehicle: other 102 % of control | dose: 400.0 mg/kg/injection, schedule: Q04DX003 (ip), vehicle: other 93 % of control

CCOP(=O)(NC=S)OCC
inactive: [1] 96 % of control

CC(C(=O)O)c1ccccc1 (stereo not given)
inactive: dose: 12.5 mg/kg/injection, schedule: Q01DX009 (ip), vehicle: saline with Tween-80 95 % of control | dose: 25.0 mg/kg/injection, schedule: Q01DX009 (ip), vehicle: saline with Tween-80 95 % of control | dose: 50.0 mg/kg/injection, schedule: Q01DX009 (ip), vehicle: saline with Tween-80 95 % of control and 90 % of control

Cc1cn(C2CCCO2)c(=O)nc1NO (stereo not given)
inactive: [2] 104 % of control | [3] 95 % of control | [4] 98 % of control

COC(=O)c1ccccc1NN=Nc1ccccc1[N+](=O)[O-]
inactive: [5] 93 % of control | [6] 97 % of control and 86 % of control | [7] 88 % of control | [8] 98 % of control and 89 % of control | [9] 97 % of control | [10] 95 % of control and 97 % of control

O=C(CCCC(=O)NNC(=O)Nc1cccc2ccccc12)NNC(=O)Nc1cccc2ccccc12
inactive: [11] 98 % of control | [12] 96 % of control | [13] 87 % of control

C[As](=O)(O)c1ccc(N)cc1
inactive: dose: 25.0 mg/kg/injection, schedule: Q04DX003 (ip), vehicle: Klucel (hydroxypropylcellulose) (HPC) 95 % of control | dose: 50.0 mg/kg/injection, schedule: Q04DX003 (ip), vehicle: Klucel (hydroxypropylcellulose) (HPC) 93 % of control | [6] 90 % of control and 92 % of control

Cc1c(Cl)cccc1NC(=O)Oc1ccc(Cl)cc1
inactive: dose: 100.0 mg/kg/injection, schedule: Q01DX009 (ip), vehicle: saline with Tween-80 92 % of control | [14] 93 % of control | dose: 200.0 mg/kg/injection, schedule: Q01DX009 (ip), vehicle: saline with Tween-80 87 % of control | [15] 97 % of control | dose: 400.0 mg/kg/injection, schedule: Q01DX009 (ip), vehicle: saline with Tween-80 87 % of control | [16] 102 % of control

Nc1nc(Br)cs1
inactive: dose: 100.0 mg/kg/injection, schedule: Q04DX003 (ip), vehicle: saline 102 % of control | dose: 200.0 mg/kg/injection, schedule: Q04DX003 (ip), vehicle: saline 102 % of control

CC(=O)Nc1ccc(OCCOC(=O)Nc2ccc(Cl)c(C(F)(F)F)c2)cc1
inactive: dose: 12.5 mg/kg/injection, schedule: Q01DX009 (ip), vehicle: carboxymethylcellulose (CMC) 95 % of control and 100 % of control | dose: 25.0 mg/kg/injection, schedule: Q01DX009 (ip), vehicle: carboxymethylcellulose (CMC) 95 % of control and 97 % of control | dose: 25.0 mg/kg/injection, schedule: Q04DX002 (ip), vehicle: carboxymethylcellulose (CMC) 92 % of control and 93 % of control | dose: 50.0 mg/kg/injection, schedule: Q04DX002 (ip), vehicle: carboxymethylcellulose (CMC) 95 % of control and 90 % of control | [2] 97 % of control and 101 % of control | dose: 100.0 mg/kg/injection, schedule: Q04DX003 (ip), vehicle: carboxymethylcellulose (CMC) 92 % of control and 101 % of control | [3] 97 % of control and 102 % of control | dose: 200.0 mg/kg/injection, schedule: Q04DX002 (ip), vehicle: carboxymethylcellulose (CMC) 94 % of control | dose: 200.0 mg/kg/injection, schedule: Q04DX003 (ip), vehicle: carboxymethylcellulose (CMC) 92 % of control | [4] 97 % of control and 87 % of control | dose: 400.0 mg/kg/injection, schedule: Q01DX009 (ip), vehicle: carboxymethylcellulose (CMC) 88 % of control and 90 % of control | dose: 400.0 mg/kg/injection, schedule: Q04DX002 (ip), vehicle: carboxymethylcellulose (CMC) 94 % of control and 91 % of control | dose: 400.0 mg/kg/injection, schedule: Q04DX003 (ip), vehicle: carboxymethylcellulose (CMC) 92 % of control and 97 % of control

NC(=O)C1(Nc2ccc(-c3ccc(Cl)cc3)cc2)CCCC1
inactive: dose: 50.0 mg/kg/injection, schedule: Q01DX001 (ip), vehicle: carboxymethylcellulose (CMC) 96 % of control | [2] 93 % of control | [3] 90 % of control | [4] 87 % of control

O=C(c1ccccc1)C1C2C=CC(C2)C1C(=O)c1ccccc1 (stereo not given)
inactive: [5] 94 % of control | [6] 108 % of control | [7] 107 % of control | [8] 97 % of control | [9] 93 % of control | [10] 100 % of control

Nc1cc(Cl)cc2cc(Br)cnc12
inactive: [6] 101 % of control | [8] 98 % of control | [10] 95 % of control

O=[N+]([O-])c1ccc(C[Se]c2ncnc3c(C4OC(CO)C(O)C4O)[nH]nc23)cc1 (stereo not given)
inactive: dose: 12.5 mg/kg/injection, schedule: Q01DX005 (ip), vehicle: saline 98 % of control | dose: 25.0 mg/kg/injection, schedule: Q01DX005 (ip), vehicle: saline 104 % of control | dose: 50.0 mg/kg/injection, schedule: Q01DX005 (ip), vehicle: saline 93 % of control

CNC(=S)SC
inactive: [11] 90 % of control | [12] 98 % of control | [13] 96 % of control

CC([NH-])=O.CC([NH-])=O.[Pt+2]
inactive: dose: 100.0 mg/kg/injection, schedule: Q01DX009 (ip), vehicle: water 105 % of control | dose: 100.0 mg/kg/injection, schedule: Q04DX003 (ip), vehicle: water 101 % of control | dose: 200.0 mg/kg/injection, schedule: Q01DX009 (ip), vehicle: water 95 % of control | dose: 200.0 mg/kg/injection, schedule: Q04DX003 (ip), vehicle: water 103 % of control

Cc1cc(-c2ccc(NC(=O)Nc3cccc(C4=NCCN4)c3)c(C)c2)ccc1NC(=O)Nc1cccc(C2=NCCN2)c1
inactive: dose: 31.2 mg/kg/injection, schedule: Q01DX Z (ip), vehicle: methylcellulose (MC) 97 % of control | dose: 62.5 mg/kg/injection, schedule: Q01DX Z (ip), vehicle: methylcellulose (MC) 103 % of control | dose: 125.0 mg/kg/injection, schedule: Q01DX Z (ip), vehicle: methylcellulose (MC) 103 % of control

C/C(CC(C)C)=N\NC(=O)Nc1ccccc1Cl
inactive: dose: 100.0 mg/kg/injection, schedule: Q01DX009 (ip), vehicle: other 102 % of control | dose: 200.0 mg/kg/injection, schedule: Q01DX009 (ip), vehicle: other 89 % of control | dose: 400.0 mg/kg/injection, schedule: Q01DX009 (ip), vehicle: other 102 % of control

O=S(=O)(NO)c1cccc(S(=O)(=O)NO)c1
inactive: dose: 100.0 mg/kg/injection, schedule: Q01DX009 (ip), vehicle: saline 97 % of control | [6] 89 % of control | dose: 200.0 mg/kg/injection, schedule: Q01DX009 (ip), vehicle: saline 87 % of control | [8] 95 % of control | [10] 92 % of control

COc1ccc(NC(=O)c2cccc(C(=O)Nc3ccc(OC)cc3Cl)c2)c(Cl)c1
inactive: dose: 100.0 mg/kg/injection, schedule: Q04DX002 (ip), vehicle: Klucel (hydroxypropylcellulose) (HPC) 97 % of control | dose: 200.0 mg/kg/injection, schedule: Q04DX002 (ip), vehicle: Klucel (hydroxypropylcellulose) (HPC) 97 % of control | dose: 400.0 mg/kg/injection, schedule: Q04DX002 (ip), vehicle: Klucel (hydroxypropylcellulose) (HPC) 90 % of control

S=C(NCN1CCNCC1)C(=S)NCN1CCNCC1
inactive: dose: 12.5 mg/kg/injection, schedule: Q01DX009 (ip), vehicle: Klucel (hydroxypropylcellulose) (HPC) 97 % of control | dose: 25.0 mg/kg/injection, schedule: Q01DX009 (ip), vehicle: Klucel (hydroxypropylcellulose) (HPC) 100 % of control | [17] 93 % of control

C/C(=N\Nc1nc2ccccc2s1)c1ccncc1
inactive: [17] 101 % of control | [5] 100 % of control | [7] 107 % of control | [9] 101 % of control

Nc1cc(=O)[nH]c(=S)n1-c1ccc(Br)cn1
inactive: [14] 98 % of control | [15] 86 % of control | [16] 104 % of control

CCCCCCCCCCCC(=O)[O][Hg][c]1ccccc1
inactive: dose: 75.0 mg/kg/injection, schedule: Q01DX001 (ip), vehicle: other 91 % of control

CCOC(=O)C1=C(O)C(=O)C(C(=O)OCC)C1 (stereo not given)
inactive: [1] 86 % of control | dose: 150.0 mg/kg/injection, schedule: Q01DX001 (ip), vehicle: saline 106 % of control | dose: 300.0 mg/kg/injection, schedule: Q01DX001 (ip), vehicle: saline 90 % of control
